Data from PMC3024462 (Journal of medicinal chemistry, 2010).

Assays:
HIV-1MDR/B (X4) = format: cell-based; conditions: number in parentheses
HIV-1MDR/C (X4) = format: cell-based; conditions: number in parentheses
HIV-1MDR/G (X4) = format: cell-based; conditions: number in parentheses
HIV-1MDR/TM (X4) = format: cell-based; conditions: number in parentheses
HIV-1MDR/MM (R5) = format: cell-based; conditions: number in parentheses
HIV-1MDR/JSL (R5) = format: cell-based; conditions: number in parentheses
HIV-1LAI = assay: Antiviral activity in MT-2 human T-lymphoid cells exposed to HIV-1LAI, MTT assay; format: cell-based
HIV-1 protease = HIV-1 protease (Human immunodeficiency virus type 1 group M subtype B, UniProt P04585); assay: HIV-1 protease enzyme inhibitory assay; format: biochemical; conditions: compared to inhibitor 35a

COC(=O)N[C@H](C(=O)N[C@@H](Cc1ccccc1)[C@@H](O)CN(Cc1ccc(-c2ccccn2)cc1)NC(=O)[C@@H](NC(=O)OC)C(C)(C)C)C(C)(C)C [ATV, atazanavir]
fold change of EC50 compared to wild-type HIV-1ERS104pre (HIV-1MDR/B (X4)): 174
fold change of EC50 compared to wild-type HIV-1ERS104pre (HIV-1MDR/C (X4)): 14
fold change of EC50 compared to wild-type HIV-1ERS104pre (HIV-1MDR/G (X4)): 7
fold change of EC50 compared to wild-type HIV-1ERS104pre (HIV-1MDR/TM (X4)): 28
fold change of EC50 compared to wild-type HIV-1ERS104pre (HIV-1MDR/MM (R5)): 76
fold change of EC50 compared to wild-type HIV-1ERS104pre (HIV-1MDR/JSL (R5)): 109

COc1ccc(S(=O)(=O)N(CC(C)C)C[C@@H](O)[C@H](Cc2ccccc2)NC(=O)O[C@H]2CCO[C@H]3COC[C@H]32)cc1 [Inhibitor 35f, (4S,4aS,7aR)-Hexahydro-2H-furo[3,4-b]pyran-4-yl ((2S,3R)-3-hydroxy-4-(N-isobutyl-4-methoxyphenylsulfonamido)-1-phenylbutan-2-yl)carbamate]
antiviral activity (in words) (HIV-1LAI; MT-2 cells exposed to HIV-1LAI): no antiviral activity

COc1ccc(S(=O)(=O)N(CC(C)C)C[C@@H](O)[C@H](Cc2ccccc2)NC(=O)O[C@H]2CCC[C@H]3OCC[C@@H]23)cc1 [Inhibitor 35c, (3aR,4S,7aR)-Octahydrobenzofuran-4-yl (2S,3R)-3-hydroxy-4-(N-isobutyl-4-methoxyphenylsulfonamido)-1-phenylbutan-2-yl carbamate]
fold change in Ki (loss of enzyme inhibitory potency) (HIV-1 protease): 2 fold
fold decrease in antiviral activity (HIV-1LAI; compared to inhibitor 35a): 16 fold

COc1ccc(S(=O)(=O)N(CC(C)C)C[C@@H](O)[C@H](Cc2ccccc2)NC(=O)O[C@@H]2CCO[C@@H]3OCC[C@@H]32)cc1 [Inhibitor 35b, (3aR,4R,7aS)-Hexahydro-2H-furo[2,3-b]pyran-4-yl ((2S,3R)-3-hydroxy-4-(N-isobutyl-4-methoxyphenylsulfonamido)-1-phenylbutan-2-yl)carbamate]
fold change in Ki (loss of enzyme inhibitory potency) (HIV-1 protease): > 20 fold
ID50 (antiviral activity) (HIV-1LAI; MT-2 cells exposed to HIV-1LAI): 19 nM
